# Source: EP4385495A1, “NANOSYSTEMS FOR THE ENCAPSULATION OF THERAPEUTIC AGENTS” (National Technical University of Athens, priority 2022, dated 2024)
# Key:
# MMP-13 = MMP-13 ELISA in secretions of TNFα-stimulated chondrocytes; assay type: cell-based, human; conditions: for Mean % relative MMP-13 secretion (72h): co-treatment with TNFα, normalized to negative control (TNFα only)
# Text: Matrix Mettaloproteinase 13 (MMP-13) is the main culprit in the destabilization of the anabolic/catabolic balance in the articular joint. MMP-13 […] balance towards catabolism and collagen II degradation which aggravates the OA pathology and is an enzyme that is secreted by chondrocytes in the extracellular environment. […] A decrease in MMP-13 levels is desirable, correlates with less degradation of cartilage and is widely used in the OA research field as a histopathological marker to evaluate amelioration of OA cellular pathology in the joint following an intervention. Finding Nanoparticles that can reduce MMP-13 levels in the assay is a promising lead for a favorable effect in a pre-clinical animal model in vivo. […] The results in Table 6 are the mean relative values from at least 3 independent repetitions of the experiments. Table 6. MMP-13 ELISA results as normalized values relative to negative control (NC, TNFα-stimulated cells without nanosystems) from 3 independent experiments. The standard deviations are omitted for simplicity. Samples' coding: S1=Naringin pure compound, S2=Naringin encapsulated in PLA nanoparticles [PLA[NAR]], S3=Naringin encapsulated in PLA nanoparticles coated with chitosan CS[PLA[NAR]], and S4=Blank PLA nanoparticles coated with chitosan, CS[PLA[---]].
# [1] = test system: experimental animal model of osteoarthritis (OA); test: von Frey mechanical allodynia test in osteoarthritis rat model; assay type: in vivo, Wistar rats; conditions: for Paw Withdrawal Threshold (%): right paw/(right paw + left paw)*100
# Procedure: Healthy adult male Wistar rats (150-200 g) were used for the study, with water and food ad libitum, at a constant temperature of 22°C and controlled lighting (12 h light/12 h dark cycle). […] As far as the dispersion procedure of the injectables is concerned, all the natural compounds were dissolved in saline solution, whereas the studied nanoparticles were mechanically grinded in a mortar and pestle set with saline solution and Tween 20 (2% w/v) and heated at 36 °C before each treatment. There were six treatments administered every 10 days. At the end of the experiment rats were euthanized and both knees were collected for histological analysis. Rats were anesthetized with chloral hydrate. The right knee joints of Group I were injected with normal saline solution and served as a control. Animals from the groups II, III, IV, V, VI, VII were injected with collagenase type II (Clostridium histolyticum). Collagenase (125 collagen digestion unit/mg) was dissolved in saline, and it was injected intra-articularly into the right knee joint twice on days 1 and 4 of the experiment ([…] and S. Fakurazi. Collagenase and sodium iodoacetate-induced experimental osteoarthritis model in Sprague dawley rats. Asian J. Sci. Res. 2: 1-13, 2009). The left knees of all animals were left untreated as a control. For the evaluation of the effectiveness and time of release of the encapsulated compounds, all animals were subjected to a series of behavioral testing in addition to the measurements of body weight and knees diameter change. The experimental protocol of the present study followed the combination of three different behavioral tests, which are von Frey mechanical allodynia test, grid walking and slope walking test. Behavioral tests are performed in three phases, at the beginning before the start of treatment, in the middle of treatment (approximately 35-40 days) and at the end (after the 70th day). Mechanical allodynia was tested by the von Frey method which detects pain threshold as the paw withdrawal response. For the testing, rats were placed into plastic chambers that allow access to the plantar surface of the hind paws. […] In Table 15 below, the nociceptive threshold is defined as: nociceptive threshold (%) = ([…])/((nociceptive; threshold on right paw + nociceptive threshold of left paw))*100 [formula] Table 13: von Frey-paw withdrawal threshold (g)
compound,measurement,setting,value
"C[C@@H]1O[C@@H](O[C@H]2[C@H](Oc3cc(O)c4c(c3)O[C@H](c3ccc(O)cc3)CC4=O)O[C@H](CO)[C@@H](O)[C@@H]2O)[C@H](O)[C@H](O)[C@H]1O [S1 [NAR], Naringin]",Mean % relative MMP-13 secretion (72h),MMP-13; 10 µM Naringin (free or encapsulated),"110,57%"
same,Mean % relative MMP-13 secretion (72h),MMP-13; 50 µM Naringin (free or encapsulated),113.28%
same,Mean % relative MMP-13 secretion (72h),MMP-13; 200 µM,"102,77%"
same,decrease in MMP-13 (in words),MMP-13; TNFα-stimulated chondrocytes,did not give a detectable decrease
same,von Frey-paw withdrawal threshold,[1]; 11 days (before treatment),63 g
same,von Frey-paw withdrawal threshold,"[1]; 40 days (half of experimental protocol), 10 mg/kg (S1, ibuprofen i.p.; nanoparticles i.a.)","81,12 g"
same,von Frey-paw withdrawal threshold,"[1]; 70 days (end of experimental protocol), 10 mg/kg (S1, ibuprofen i.p.; nanoparticles i.a.)","83,96 g"
same,von Frey-paw withdrawal threshold,[1]; left-control paw,"88,68 g"
same,paw withdrawal thresholds after commencement of treatment (in words),"[1]; rat, in vivo",presented an increase
same,Paw Withdrawal Threshold (%),[1]; 11 days (before treatment),"41,53%"
same,Paw Withdrawal Threshold (%),[1]; 40 days (half of experimental protocol),"45,55%"
same,Paw Withdrawal Threshold (%),[1]; 70 days (end of experimental protocol),"45,95%"
